Measured values taken from US9878999B2, “Proteasome chymotrypsin-like inhibition using PI-1833 analogs” (H. Lee Moffitt Cancer Center and Research Institute, Inc., priority 2011, dated 2018).
Values joined by “and” are separate entries in the source; they are usually repeats but may differ in a detail not shown here. Equal entries are not always repeated. “Also recorded” adds a separate entry of the source. Where two headings read alike, the source gives them in different places. Values belong to the molecule of their own block, whether it stands above or below them.

Columns and labels:
[1] = biological target: T1, CT-L activity in human breast cancer MDA-MB-468 cells (Homo sapiens, UniProt P20618+P28074); assay: whole cell CT-L activity in MDA-MB-468 cells; format: cell-based
T1 construct: endogenous in cells; host or cells: MDA-MB-468

[2] = biological target: CT-L activity of purified 20S proteasome (Homo sapiens, UniProt P20618+P28074); assay: in vitro CT-L activity of purified 20S proteasome; format: biochemical; conditions: for fold improved CT-L activity: compared to the hit 1 (PI-1833); for fold loss of CT-L activity: compared to 1
[3] = biological target: T2, PGPH activity in MDA-MB-468 cells (Homo sapiens, UniProt P28072); assay: PGPH activity in MDA-MB-468 cells; format: cell-based; conditions: MDA-MB-468, within 10 min
T2 construct: endogenous in cells; host or cells: MDA-MB-468

[4] = system: MCF-10A; assay: MTT assay, proliferation and viability; format: cell-based; conditions: Homo sapiens, normal/immortalized, 72 h
[5] = system: HCT-116; assay: MTT assay, proliferation and viability; format: cell-based; conditions: Homo sapiens, HCT-116, mut K-Ras
[6] = system: HCT-116-p53^−/−; assay: MTT assay, proliferation and viability; format: cell-based
[7] = biological target: T3, T-L activity in MDA-MB-468 cells (Homo sapiens, UniProt Q99436); assay: T-L activity in MDA-MB-468 cells; format: cell-based; conditions: MDA-MB-468, within 10 min
T3 construct: endogenous in cells; host or cells: MDA-MB-468

[8] = system: Colo357; assay: MTT assay, proliferation and viability; format: cell-based; conditions: Homo sapiens, COLO357, 96 h
[9] = system: MDA-MB-468; assay: MTT assay, proliferation and viability; format: cell-based; conditions: Homo sapiens, MDA-MB-468, WT K-Ras
[10] = system: DU-145; assay: MTT assay, proliferation and viability; format: cell-based; conditions: Homo sapiens, DU-145, Bax^−/−
[11] = system: MDA-MB-468 and HCT-116 cells; assay: Western blot for cleaved caspase-3 and cleaved PARP (apoptosis); format: cell-based, human; conditions: 48 h or 24 h
Method: FIG. 17 is a blot showing the apoptotic potential of PI-1833 and PI-1840. Exponentially growing human breast cancer cells MDA-MB-468 and colon cancer cells HCT-116 were treated with different concentrations of PI-1833 or PI-1840 for 48 h or 24 h, followed by WB analysis for cleaved caspase-3 and cleaved PARP.

[12] = system: LNCaP; assay: MTT assay, proliferation and viability; format: cell-based; conditions: Homo sapiens, Bax^+/+
[13] = system: proteasome substrates p27, Bax and IKB; assay: Western blot, accumulation of proteasome substrates; format: cell-based
[14] = system: HCT-116-HKH2; assay: MTT assay, proliferation and viability; format: cell-based; conditions: HCT-116-HKH2, K-Ras^−/−
[15] = system: MDA-MB-231; assay: MTT assay, proliferation and viability; format: cell-based; conditions: Homo sapiens, MDA-MB-231, mut K-Ras
[16] = system: PC3; assay: MTT assay, proliferation and viability; format: cell-based; conditions: Homo sapiens, PC-3
[17] = system: RPMI-8226; assay: MTT assay, proliferation and viability; format: cell-based; conditions: Homo sapiens
[18] = system: RX7-397; assay: MTT assay, proliferation and viability; format: cell-based; conditions: RX7-397, 96 h
[19] = Table 5, read-out: IC50 (μM) Chymotrypsin-like
[20] = WT p53, 72 h, read-out: 72 h (MTT assay)
[21] = WT p53, 96 h, read-out: 96 h (MTT assay)
[22] = 72 h, read-out: 72 h (MTT assay)
[23] = 96 h, read-out: 96 h (MTT assay)
[24] = Table 1, read-out: IC50 (μM) Chymotrypsin-like activity
[25] = Table 2, read-out: IC50 (μM) Chymotrypsin-like activity
[26] = Table 3, read-out: IC50 (μM) CT-L
[27] = Table 5, @ 10 μM, read-out: Screening Results (% Inhibition @ 10 μM) Chymotrypsin-like

Molecule: Cc1ccc(OCC(=O)N(Cc2nc(-c3ccc(C)cc3)no2)C(C)C)cc1 [drawing 107]
IC50 ([1]; Table 5, MDA-MB-468, read-out: Whole cell IC50 (μM) Chymotrypsin-like): 1.1 µM | IC50 [2, 19]: 0.63 ± 0.35 µM

Molecule: Cc1ccc(OCC(=O)N(Cc2nc(-c3ccc(C)cc3)no2)C(C)C)cc1 [compound 1, N-Isopropyl-N-((3-p-tolyl-1,2,4-oxadiazol-5-yl)methyl)-2-(p-tolyloxy)acetamide]
IC50 ([1]; MDA-MB-468 breast cancer cells, read-out: whole cell IC50 activity): 1.1 µM and 1 µM | IC50 [2, 24]: 0.63 ± 0.35 µM | IC50 [2, 25]: 0.63 ± 0.35 µM | IC50 ([2]; Table 7, 20S CT-L proteasome activity, read-out: IC50 (μM) CT-L): 0.716 ± 0.27 µM | IC50 ([2]; read-out: IC50, in vitro CT-L): 0.65 ± 0.39 µM

Molecule: N-Isopropyl-N-((2-phenyloxazol-4-yl)methyl)-2-(p-tolyloxy)acetamide [SO3-023]
IC50 ([2]; Table 4, read-out: IC50 (μM) Chymotrypsin-like activity): 0.45 ± 0.18 µM

Molecule: CCCc1ccc(OC(C)C(=O)N(Cc2nc(-c3cccnc3)no2)C(C)C)cc1 (racemic) [drawing 177]
IC50 [2, 19]: 0.289 µM

Molecule: CC(C)N(Cc1nc(-c2ccccc2)no1)C(=O)COc1ccccc1 [drawing 127]
IC50 [2, 19]: 6.22 ± 1.11 µM

Molecule: CC(C)CC(NC(=O)c1ccc(OCC(=O)N(Cc2nc(-c3ccccc3)no2)C(C)C)cc1)C(=O)O (stereo not shown) [drawing 153]
Screening Results (% Inhibition @ 10 μM) Chymotrypsin-like ([2]; Table 5, @ 10 μM, 10 µM): −149.24 ± 157.49 (n = 5) %

Molecule: Cc1ccc(O[C@H](C)C(=O)N(Cc2nc(-c3cccnc3)no2)C(C)C)cc1 [drawing 163]
IC50 [2, 19]: 7.52 ± 2.13 µM

Molecule: CC(C)N(Cc1nc(-c2ccc(Cl)cc2)no1)C(=O)COc1ccc(Cl)cc1 [drawing 119]
IC50 [2, 19]: 1.07 ± 0.05 µM

Molecule: CC(C)c1ccc(OCC(=O)N(Cc2nc(-c3cccnc3)no2)C(C)C)cc1 [drawing 171]
IC50 [2, 19]: 0.436 ± 0.073 µM

Molecule: CC(C)N(Cc1nc(-c2ccc(C(F)(F)F)cc2)no1)C(=O)COc1ccccc1 [drawing 126]
IC50 [2, 19]: 15.1 ± 6.94 µM

Molecule: CC(C)N(Cc1nc(-c2cccnc2)no1)C(=O)c1cc2ccccc2o1 [drawing 160]
IC50 [2, 19]: 0.379 ± 0.063 µM

Molecule: Cc1ccc(OC(C)C(=O)N(Cc2nc(-c3ccccc3)no2)C(C)C)cc1 (stereo not shown)
inhibition at 10 µM [2, 27]: 92.43 ± 0.82% | IC50 [2, 19]: 0.92 ± 0.21 µM

Molecule: Cc1ccc(OCC(=O)N(Cc2nc3ccccc3[nH]2)C(C)C)cc1 [drawing 151]
inhibition at 10 µM [2, 27]: 80.4 ± 3.04% | IC50 [2, 19]: 12.5 ± 2.96 µM

Molecule: CC(C)N(Cc1nc(-c2ccccc2)no1)C(=O)COc1ccc2cc(Br)ccc2c1 [drawing 133]
inhibition at 10 µM [2, 27]: < 70%

Molecule: CC(C)N(Cc1nc(-c2ccccc2)no1)C(=O)CCl
inhibition at 10 µM [2, 27]: -53 ± 23.4%

Molecule: Cc1ccc(OCC(=O)N(CCc2nc(-c3ccccc3)no2)C(C)C)cc1 [SO2-091, N-Isopropyl-N-(2-(3-phenyl-1,2,4-oxadiazol-5-yl)ethyl)-2-(p-tolyloxy)acetamide]
inhibition at 10 µM ([2]; read-out: % inhibition of CT-L @ 10 μM, @ 10 μM): 31%

Molecule: CC(C)N(Cc1nc(-c2ccc(C(F)(F)F)cc2)no1)C(=O)COc1ccc(Cl)cc1 [drawing 120]
IC50 [2, 19]: 1.4 ± 0.185 µM

Now from value to molecule, other results behind:

inhibition of PGPH activity in cells, in words [3]: not T-L or PGPH | IC50 [5, 20]: 40.9 ± 15.8 µM | IC50 [5, 21]: 35.3 µM | IC50 [6, 22]: 45.9 ± 19.9 µM | IC50 [6, 23]: 31.1 µM | inhibition of T-L activity in cells, in words [7]: not T-L or PGPH | IC50 [8]: 95.7 µM | IC50 ([9]; mut p53, 72 h, read-out: 72 h (MTT assay)): 25.4 ± 5.83 µM | IC50 ([9]; mut p53, 96 h, read-out: 96 h (MTT assay)): 11.6 µM | IC50 [10, 22]: 123 ± 25.2 µM | IC50 [10, 23]: 159 µM | IC50 [12, 22]: 49 ± 6.81 µM | IC50 [12, 23]: 17.2 µM | fold improved CT-L activity [2]: 20 fold | IC50 ([2]; read-out: IC50, in vitro CT-L): 0.032 µM | IC50 [14, 20]: 43 ± 9.73 µM | IC50 [14, 21]: 12.8 µM | IC50 [15, 22]: 133 ± 21.6 µM | IC50 [15, 23]: 106 µM | IC50 ([16]; PC3, 72 h, read-out: 72 h (MTT assay)): 92.7 µM | IC50 ([16]; PC3, 96 h, read-out: 96 h (MTT assay)): 62.5 µM | IC50 ([17]; RPMI-8226, 72 h, read-out: 72 h (MTT assay)): 35.9 ± 11.2 µM | IC50 ([17]; RPMI-8226, 96 h, read-out: 96 h (MTT assay)): 34.7 µM
Molecule: CCCc1ccc(OCC(=O)N(Cc2nc(-c3cccnc3)no2)C(C)C)cc1 [11ad]
IC50 [4]: 63.1 ± 7.06 µM | induction of apoptosis, in words [11]: efficiently inducing apoptosis | accumulation of proteasome substrates p27, Bax and IKB, in words [13]: more potent at accumulating the proteasome substrates p27, Bax and IKB | inhibition of CT-L activity in cells, in words ([1]; MDA-MB-468, listed as PI-1840): inhibits CT-L; also recorded: more potent at inhibiting CT-L activity in human breast cancer | IC50 [18]: 56.9 µM

melting point: 211.3 to 213.8 °C | IC50 [2, 24]: 27.8 ± 20.8 µM | IC50 ([2]; read-out: IC50, in vitro CT-L): 27 µM
Molecule: CC(C)N(Cc1nc(-c2ccccc2)no1)C(=O)COc1ccc(C(=O)O)cc1 [11t, 4-(2-(Isopropyl((3-phenyl-1,2,4-oxadiazol-5-yl)methyl)amino)-2-oxoethoxy)benzoic acid]

CT-L inhibitory activity, in words [2]: failed to retain the activity | IC50 [2, 24]: 4 ± 0.89 µM
Molecule: Cc1ccc(OCC(=O)N(Cc2nc(-c3ccccc3)no2)C(C)C)cn1 [11z, N-Isopropyl-2-(60methylpyridin-3-yloxy)-N-((3-phenyl-1,2,4-oxadiazol-5-yl)methyl)acetamide]

IC50 [2, 26]: 2.18 ± 0.28 µM
Molecule: CCCc1ccc(O[C@@H](C)C(=O)N(Cc2nc(-c3cccnc3)no2)C(C)C)cc1 (single isomer, unassigned) [16f]

fold loss of CT-L activity [2]: 10 fold | IC50 ([2]; read-out: IC50, in vitro CT-L): 6.22 µM
Molecule: CC(C)N(Cc1nc(-c2ccccc2)no1)C(=O)COc1ccccc1 [11j, N-Isopropyl-2-phenoxy-N-((3-phenyl-1,2,4-oxadiazol-5-yl)methyl)acetamide]

IC50 [2, 24]: 1.4 ± 0.185 µM | IC50 ([2]; read-out: IC50, in vitro CT-L): ~1 µM
Molecule: CC(C)N(Cc1nc(-c2ccc(C(F)(F)F)cc2)no1)C(=O)COc1ccc(Cl)cc1 [11f, 2-(4-Chlorophenoxy)-N-isopropyl-N-((3-(4-(trifluoromethyl)phenyl)-1,2,4-oxadiazol-5-yl)methyl)acetamide]

CT-L inhibitory activity, in words [2]: poor CT-L inhibitory activity | IC50 [2, 24]: 8.73 ± 3.05 µM | fold loss of CT-L inhibitory activity ([2]; compared to 11b): 20 fold
Molecule: CC(C)N(Cc1nc(-c2ccccc2)no1)C(=O)COc1ccc(F)cc1 [11s, 2-(4-Fluorophenoxy)-N-isopropyl-N-((3-phenyl-1,2,4-oxadiazol-5-yl)methyl)acetamide]

IC50 ([2]; read-out: IC50, in vitro CT-L): 2.53 µM
Molecule: CC(C)N(Cc1nc(-c2ccc(C(F)(F)F)cc2)no1)C(=O)COc1ccc(C(F)(F)F)cc1 [11c, N-Isopropyl-2-(4-(trifluoromethyl)phenoxy)-N-((3-(4-(trifluoromethyl)phenyl)-1,2,4-oxadiazol-5-yl)methyl)acetamide]

IC50 [2, 25]: 8.98 ± 5.21 µM | fold loss of CT-L activity [2]: 14 fold | IC50 ([2]; read-out: IC50, in vitro CT-L): 8.8 µM
Molecule: CCN(Cc1nc(-c2ccc(C)cc2)no1)C(=O)COc1ccc(C)cc1 [12b, N-Ethyl-N-((3-p-tolyl-1,2,4-oxadiazol-5-yl)methyl)-2-(p-tolyloxy)acetamide]

CT-L inhibitory activity, in words [2]: loss of in vitro activity | IC50 [2, 24]: > 10 µM
Molecule: Cc1ccccc1OCC(=O)N(Cc1nc(-c2ccccc2)no1)C(C)C [11p, N-Isopropyl-N-((3-phenyl-1,2,4-oxadiazol-5-yl)methyl)-2-(o-tolyloxy)acetamide]

IC50 [2, 24]: > 10 µM
Molecule: CC(C)N(Cc1nc(-c2ccccc2)no1)C(=O)COc1ccc(C(=O)OC(C)(C)C)cc1 [11aq, tert-Butyl 4-(2-(isopropyl((3-phenyl-1,2,4-oxadiazol-5-yl)methyl)amino)-2-oxoethoxy)benzoate]

fold improved CT-L activity [2]: 20 fold | IC50 ([2]; read-out: IC50, in vitro CT-L): 0.039 µM
Molecule: CCCCc1ccc(OCC(=O)N(Cc2nc(-c3cccnc3)no2)C(C)C)cc1 [11ae, 2-(4-Butylphenoxy)-N-isopropyl-N-((3-(pyridine-3-yl)-1,2,4-oxadiazol-5-yl)methyl)acetamide]

IC50 [2, 26]: 0.38 ± 0.099 µM | IC50 ([2]; read-out: IC50, in vitro CT-L): 0.318 µM
Molecule: Cc1ccc(OC(C)C(=O)N(Cc2nc(-c3cccnc3)no2)C(C)C)cc1 (racemic) [16a]
